From patent US20100063065A1 (Inpharmatica Limited, priority 2005, published 2010)
pEC50: −log10 of the molar value.

Biological target: T1, PPARδ (Homo sapiens, UniProt Q03181)
T1 construct: fused to amino acids 147-441 of PPARδ downstream of CMV promoter; expressed in transfected cells; host or cells: HEK293 cells, transiently transfected with pFACMV-PPARδ using Fugene
T1 sequence (Q03181 147-441): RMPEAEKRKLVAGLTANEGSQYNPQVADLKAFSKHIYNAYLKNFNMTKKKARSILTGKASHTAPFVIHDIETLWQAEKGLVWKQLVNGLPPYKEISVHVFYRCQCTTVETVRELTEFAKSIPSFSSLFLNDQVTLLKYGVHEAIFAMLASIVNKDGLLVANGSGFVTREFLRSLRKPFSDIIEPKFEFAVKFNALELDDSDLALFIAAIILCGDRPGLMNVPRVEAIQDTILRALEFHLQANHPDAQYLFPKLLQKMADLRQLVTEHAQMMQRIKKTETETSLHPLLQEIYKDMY
Test: Transactivation assay (PPARδ GAL4 assay) in transiently transfected HEK293 cells
Assay type: cell-based
Conditions: luciferase reporter
Procedure: Compounds were screened for their functional potency in transiently transfected HEK293 cells for their ability to activate PPAR subtypes. Cells were cultured in DMEM (Invitrogen) supplemented with 10% foetal calf serum, glutamine, penicillin and streptomycin and plated at 10 000 cells/well of a 96-well solid white plate and incubated at 37° C./5% CO2 for 24 hours. Media was removed and the cells washed with PBS. Cells were then transiently transfected using Fugene (Roche) with 50 ng pFACMV-PPARδ (plasmid encoding amino acids 1-147 of the GAL4 DNA binding domain, fused to amino acids 147-441 of PPARδ downstream of CMV promoter) and 250 ng pFR-Luc (reporter plasmid containing 5×GAL4 response elements upstream of a luciferase gene), using a ratio of 3:1 Fugene:DNA. 100 μl of this transfection mixture in DMEM (without foetal calf serum) was added to each well, and the incubation continued for a further 24 hours. The cells are then again washed with PBS prior to the addition of 100 μl reduced serum medium (OptiMEM; Invitrogen). Compounds were added (10 μl in 2% DMSO in OptiMEM) to achieve final concentrations between 0-30 μM. The cells were then returned to the incubator for a further 24 hours. 100 μl of luciferase reagent (Bright Glo, Promega) was added directly to each well, and the luminescence determined using a suitable luminometer.
To measure the selectivity of compounds, their ability to transactivate GAL4 fusions of PPARα LBD and PPARγ LBD was determined. The activity of compounds was expressed as a percentage relative to control compounds: PPARγ rosiglitazone (BRL 49653), PPARδ GW501516 (11) or PPARα KCL1999000269 (12). EC50 values were calculated by fitting of the data to a sigmoidal dose response curve.

| Compound | pEC50 (Table 2) | pEC50 (Table 1) |
| --- | --- | --- |
| CCc1cc(C(=O)c2ccc(OC(F)(F)F)cc2)c(NC(=O)COc2ccc(OCC(=O)O)cc2)s1 [Example 117, (4-{[5-Ethyl-3-(4-trifluoromethoxy-benzoyl)-thiophen-2-ylcarbamoyl]-methoxy}-phenoxy)-acetic acid] | 4.52 to 6.00 |  |
| CCc1cc(C(=O)c2ccc(OC(F)(F)F)cc2)c(NC(=O)C(C)(C)N2CCC[C@@H]2C(=O)O)s1 [Example 119, (R)-1-{1-[5-Ethyl-3-(4-trifluoromethoxy-benzoyl)-thiophen-2-ylcarbamoyl]-1-methyl-ethyl}-pyrrolidine-2-carboxylic acid] | 6.00 to 7.00 |  |
| CCc1cc(C(=O)c2ccc(OC(F)(F)F)cc2)c(NC(=O)CSc2ccc(OC(C)(C)C(=O)O)cc2)s1 [Example 95, 2-(4-{[5-Ethyl-3-(4-trifluoromethoxy-benzoyl)-thiophen-2-ylcarbamoyl]-methylsulfanyl}-phenoxy)-2-methyl-propionic acid] |  | 6.00 to 7.00 |
| COc1ccc(C(=O)c2cc(Cl)sc2NC(=O)CSCC(=O)O)cn1 [Example 65, {[5-Chloro-3-(6-methoxy-pyridine-3-carbonyl)-thiophen-2-ylcarbamoyl]-methylsulfanyl}-acetic acid] |  | 4.52 to 6.00 |
| CCc1cc(C(=O)c2ccc(C)cc2)c(NC(=O)CSCC(=O)O)s1 [Example 8, {[5-Ethyl-3-(4-methyl-benzoyl)-thiophen-2-ylcarbamoyl]-methylsulfanyl}-acetic acid] |  | 6.00 to 7.00 |
| CCc1cc(C(=O)c2ccc(OC(F)(F)F)cc2)c(NC(=O)CCC(C)(C)C(=O)O)s1 [Example 146, 4-[5-Ethyl-3-(4-trifluoromethoxy-benzoyl)-thiophen-2-ylcarbamoyl]-2,2-dimethyl-butyric acid] | > 7.00 |  |
| CCc1cc(C(=O)c2ccc(OC(F)(F)F)cc2)c(NC(=O)CS[C@@H](C)C(=O)O)s1 [Example 129, (S)-2-{[5-Ethyl-3-(4-trifluoromethoxy-benzoyl)-thiophen-2-ylcarbamoyl]-methylsulfanyl}-propionic acid] | > 7.00 |  |
| CCc1cc(C(=O)c2ccc(OC(F)(F)F)cc2)c(NC(=O)CCCSCC(=O)O)s1 [Example 105, {3-[5-Ethyl-3-(4-trifluoromethoxy-benzoyl)-thiophen-2-ylcarbamoyl]-propylsulfanyl}-acetic acid] | 6.00 to 7.00 |  |
| CCc1cc(C(=O)c2ccc(OC(F)(F)F)c(Cl)c2)c(NC(=O)CSCC(=O)O)s1 [Example 142, {[3-(3-Chloro-4-trifluoromethoxy-benzoyl)-5-ethyl-thiophen-2-ylcarbamoyl]-methylsulfanyl}-acetic acid] | > 7.00 |  |
| CCc1cc(C(=O)c2ccc(OC(F)(F)F)cc2)c(NC(=O)CNC2(C(=O)O)CCC2)s1 [Example 164, 1-({[5-Ethyl-3-(4-trifluoromethoxy-benzoyl)-thiophen-2-ylcarbamoyl]-methyl}-amino)-cyclobutanecarboxylic acid] | > 7.00 |  |
| CCc1cc(C(=O)c2ccc(-c3cnn(C)c3)cc2)c(NC(=O)CSCC(=O)O)s1 [Example 42, ({5-Ethyl-3-[4-(1-methyl-1H-pyrazol-4-yl)-benzoyl]-thiophen-2-ylcarbamoyl}-methylsulfanyl)-acetic acid] |  | 4.52 to 6.00 |
| CCc1cc(C(=O)c2ccc(OC(F)(F)F)cc2)c(NC(=O)CCSCC(=O)O)s1 [Example 194, {2-[5-Ethyl-3-(4-trifluoromethoxy-benzoyl)-thiophen-2-ylcarbamoyl]-ethylsulfanyl}-acetic acid] | > 7.00 |  |
| CCc1cc(C(=O)c2ccc(OC(F)(F)F)cc2)c(NC(=O)CN[C@@H](C)C(=O)O)s1 [Example 160, (S)-2-({[5-Ethyl-3-(4-trifluoromethoxy-benzoyl)-thiophen-2-ylcarbamoyl]-methyl}-amino)-propionic acid] | 6.00 to 7.00 |  |
| CCc1cc(C(=O)c2ccc(OC(C)C)nc2)c(NC(=O)CSCC(=O)O)s1 [Example 58, {[5-Ethyl-3-(6-isopropoxy-pyridine-3-carbonyl)-thiophen-2-ylcarbamoyl]-methylsulfanyl}-acetic acid] |  | 6.00 to 7.00 |
| Cc1cc(C(=O)c2ccc(OC(F)(F)F)cc2)c(NC(=O)CSc2ccc(OCC(=O)O)cc2)s1 [Example 141, (4-{[5-Methyl-3-(4-trifluoromethoxy-benzoyl)-thiophen-2-ylcarbamoyl]-methylsulfanyl}-phenoxy)-acetic acid] | > 7.00 |  |
| CCc1cc(C(=O)c2ccc(OC(F)(F)F)cc2)c(NC(=O)c2ccc(NCC(=O)O)cc2)s1 [Example 115, {4-[5-Ethyl-3-(4-trifluoromethoxy-benzoyl)-thiophen-2-ylcarbamoyl]-phenylamino}-acetic acid] | 6.00 to 7.00 |  |
| CCc1cc(C(=O)c2ccc(OC(C)C)c(Cl)c2)c(NC(=O)CSCC(=O)O)s1 [Example 130, {[3-(3-Chloro-4-isopropoxy-benzoyl)-5-ethyl-thiophen-2-ylcarbamoyl]-methylsulfanyl}-acetic acid] | 6.00 to 7.00 |  |
| CCc1cc(C(=O)c2ccc(Cl)cc2)c(NC(=O)CSC(C)(C)C(=O)O)s1 [Example 24, 2-{[3-(4-Chloro-benzoyl)-5-ethyl-thiophen-2-ylcarbamoyl]-methylsulfanyl}-2-methyl-propionic acid] |  | 6.00 to 7.00 |
| CCc1cc(C(=O)c2ccc(OC)cc2)c(NC(=O)CSc2ccc(OCC(=O)O)cc2)s1 [Example 89, (4-{[5-Ethyl-3-(4-methoxy-benzoyl)-thiophen-2-ylcarbamoyl]-methylsulfanyl}-phenoxy)-acetic acid] |  | 4.52 to 6.00 |
| CCc1cc(C(=O)c2ccc(OC(F)(F)F)cc2)c(NC(=O)CNC2(C(=O)O)CCCCC2)s1 [Example 166, 1-({[5-Ethyl-3-(4-trifluoromethoxy-benzoyl)-thiophen-2-ylcarbamoyl]-methyl}-amino)-cyclohexanecarboxylic acid] | 6.00 to 7.00 |  |
| CCc1cc(C(=O)c2ccc(OC(F)(F)F)cc2)c(NC(=O)C(SCC(=O)O)C(C)C)s1 (centres unmarked) [Example 114, {1-[5-Ethyl-3-(4-trifluoromethoxy-benzoyl)-thiophen-2-ylcarbamoyl]-2-methyl-propylsulfanyl}-acetic acid] | 6.00 to 7.00 |  |
| CCc1cc(C(=O)c2ccc(OC(F)(F)F)cc2)c(NC(=O)CN[C@@H](C(=O)O)C(C)C)s1 [Example 78, (R)-2-({[5-Ethyl-3-(4-trifluoromethoxy-benzoyl)-thiophen-2-ylcarbamoyl]-methyl}-amino)-3-methyl-butyric acid] |  | 4.52 to 6.00 |
| CCc1cc(C(=O)c2ccc(OC(F)(F)F)cc2)c(NC(=O)CN2CCC[C@@H]2C(=O)O)s1 [Example 168, (R)-1-{[5-Ethyl-3-(4-trifluoromethoxy-benzoyl)-thiophen-2-ylcarbamoyl]-methyl}-pyrrolidine-2-carboxylic acid] | 6.00 to 7.00 |  |
| CCc1cc(C(=O)c2cccc(-c3ccc(F)cc3)c2)c(NC(=O)CNC(C)(C)C(=O)O)s1 [Example 85, 2-({[5-Ethyl-3-(4′-fluoro-biphenyl-3-carbonyl)-thiophen-2-ylcarbamoyl]-methyl}-amino)-2-methyl-propionic acid] |  | 6.00 to 7.00 |
| CCc1cc(C(=O)c2ccc(OC(F)(F)F)cc2)c(NC(=O)CN2CCC(C(=O)O)C2)s1 (centres unmarked) [Example 162, 1-{[5-Ethyl-3-(4-trifluoromethoxy-benzoyl)-thiophen-2-ylcarbamoyl]-methyl}-pyrrolidine-3-carboxylic acid] | 6.00 to 7.00 |  |
| CCc1cc(C(=O)c2ccc(C(C)(C)C)cc2)c(NC(=O)CSCC(=O)O)s1 [Example 50, {[3-(4-tert-Butyl-benzoyl)-5-ethyl-thiophen-2-ylcarbamoyl]-methylsulfanyl}-acetic acid] |  | 4.52 to 6.00 |
| CCc1cc(C(=O)c2ccc(OC(F)(F)F)cc2)c(NC(=O)C(C)(C)SC(C)C(=O)O)s1 (centres unmarked) [Example 108, 2-{1-[5-Ethyl-3-(4-trifluoromethoxy-benzoyl)-thiophen-2-ylcarbamoyl]-1-methyl-ethylsulfanyl}-propionic acid] | > 7.00 |  |
| CCc1cc(C(=O)c2ccc(-c3ccc(F)cc3)cc2)c(NC(=O)CNC(C)(C)C(=O)O)s1 [Example 83, 2-({[5-Ethyl-3-(4′-fluoro-biphenyl-4-carbonyl)-thiophen-2-ylcarbamoyl]-methyl}-amino)-2-methyl-propionic acid] |  | > 7.00 |
| CCc1cc(C(=O)c2ccc(-c3ccccc3)cc2)c(NC(=O)CSCC(=O)O)s1 [Example 36, {[3-(Biphenyl-4-carbonyl)-5-ethyl-thiophen-2-ylcarbamoyl]-methylsulfanyl}-acetic acid] |  | > 7.00 |
